In patent publication US4515781A, “2',5'-Riboadenylate-morpholinoadenylate nucleotides” (The United States of America as represented by the …, priority 1983, dated 1985):
“Also recorded” adds a separate entry of the source.

Columns and labels:
[1] = target: antip5'A2'p5'A2'p5'Aserum; assay: Reactivity of 2',5'-oligoadenylates with antibody (enzyme-linked immunoassay); format: binding; details: for IC50: enzyme-linked immunoassay, read-out: IC50, concentration required to achieve a 50% inhibition of reactivity with antip5'A2'p5'A2'p5'Aserum
From the text: ^a Concentration in nanomolar required to achieve a 50% inhibition of
reactivity with antip5'A2'p5'A2'p5'Aserum in an enzymelinked immunoassay.

[2] = tested on: protein synthesis in mouse L cell extracts programmed by encephalomyocarditis virus RNA; assay: Inhibition of protein synthesis (translation) in extracts of mouse L cells programmed with encephalomyocarditis virus RNA; format: biochemical; details: tetramer (12) alone
Description: (§1) The preparation of cell extracts and the techniques and conditions of cell-free protein synthesis in extracts of interferon-treated or untreated mouse L cells have been described elsewhere.
(§2) This observation provided a relatively simple approach to determine if a given nucleotide or oligoribonucleotide is capable of significant binding to the 2-5A-activated ribonuclease. For this reason, the (2'→5')oligoadenylates 5'-monophosphates, 11 and 12, were evaluated first for their ability to block the translational inhibitory effects of ppp5'A2'p5'A2'p5'A in extracts of mouse L cells programmed by encephalomyocarditis virus RNA. In the experiment, the 2-5A trimer, ppp5'A2'p5'A2'p5'A, was added in varying concentrations, with or without the tetranucleotide 5'-monophosphate inhibited translation with a concentration for half-maximal response of ~2×10^-9 M in agreement with other values in the literature. However, when 12 was also present at a concentration of 8×10^-5 M, there was at least a 1000-fold increase in the concentration of 2-5A trimer triphosphate required to bring about a half-maximal inhibition of protein synthesis.

[3] = tested on: poly(I)·poly(C) action (2-5A synthetase-endonuclease system); assay: Antagonism of poly(I).poly(C) protein synthesis inhibition in extracts of interferon-treated mouse L cells; format: biochemical
From the text: as §1
This observation implied that the inhibitory action of poly(I)·poly(C) is mediated chiefly by the 2-5A synthetase-endonuclease system. […] As observed previously with p5'A2'p5'A2'p5'A, the reversal of inhibition of poly(I)·poly(C) was not complete.

2-5A synthetase = assay: Kinetics of 2-5A synthesis in the presence of compound 11 or 12; format: biochemical, mouse; details: standard synthetase assay conditions
Description: Incubation was at 30° for the designated times at which aliquots (35 μL) were removed and diluted 10× in cold H2 O. These diluted reaction mixtures were frozen at -90° until analysis.
Reaction mixture were analyzed by thin layer chromatography by spotting 2 μL of the diluted reaction mixture on a plastic PEI cullulose plate (E. Merck). The plate was developed first with solvent system D and then three times with solvent system C. […] A template of the developed film was made with aid of tracing paper, and this was used to locate the corresponding radioactive spots on the tlc plate. The plate was cut according to the positions indicated by the template, and the resulting pieces were counted with 10 mls of fluor in a standard scintillation vial. The percentage of each radioactive component by the gross radioactivity associated with all the components visualized on tlc. The position of ATP, pp5'A2'p5'A,pppA2'p5'A2'p5'A, etc. were determined from authentic markers.

[4] = tested on: 2-5A-activated ribonuclease (translational inhibitory effects of ppp5'A2'p5'A2'p5'A); assay: Antagonism of 2-5A trimer triphosphate translational inhibition in mouse L cell extracts; format: biochemical
Description: as §1
as §2, with “synthesis. […]” for “synthesis.”

[5] = tested on: 2-5A-dependent endoribonuclease; assay: Prevention of 2-5A-activated degradation of [3H]-encephalomyocarditis virus RNA in extracts of mouse L cells; format: biochemical
From the text: (§3) To ascertain if the 2'-terminally modified (2'→5')oligonucleotides prevented the protein synthesis inhibitory action of 2-5A by the same mechanism as does p5'A2'p5'A2'p5'A (i.e., by preventing the activation of the 2-5A-dependent endoribonuclease), the 2-5A-enhanced degradation of [^3 H]-encephalomyocarditis virus RNA was followed in extracts of mouse L cells in the presence or absence of the modified tetramer monophosphate (12). The 2-5A-activated degradation of encephalomyocarditis virus RNA was prevented by 12; furthermore, there was good agreement between the results since in both instances a concentration of 8×10^-5 M 12 caused approximately a 1000-fold increase in the concentration of ppp5'A2'p5'A2'p5'A needed to effect 50% of the maximum inhibition.

[6] = Stability of 2',5'-oligoadenylates in mouse L-cell extracts, immunochemical study; format: in vitro ADME
Description: Oligoadenylates at a final concentration of 400 nM were incubated under protein synthesis conditions (minus [^3 H]-leu and EMCV RNA) at 30° C. for 0-6 hours. Samples were removed diluted with an equal volume of phosphate-buffered saline (PBS, 0.01M sodium phosphate, pH 7.4, 0.14M NaCl) with added 0.05% polyoxyethylene sorbitan monolaurate, (PSM) and then heated at 95° C. for 10-15 minutes. After cooling, the samples were centrifuged for 1 min. at room temperature in an Eppendorf microfuge. The supernatant samples were serially diluted (three-fold) in 0.05% PSM prior to analysis in a competitive enzyme-linked antibody assay.
In a second series of experiments, the degradation of both the 5'-monophosphates and 5'-triphosphate of the terminally modified oligomers was compared to the degradation of the corresponding unmodified mono- and tri-phosphates. In this case, however, the course of reaction was followed using an immunoenzymometric assay for 2-5A and its derivatives. The antiserum employed in this study was inhibited 50% by both the unmodified and 2'-terminally modified 2',5'-oligoadenylates in the nanomolar range, the tetramer oligoadenylates being 2-5 times more reactive than the corresponding trimer species (Table 3, experimental). In contrast, the dimers were much less reactive, requiring concentrations of about 300 nM to achieve this same level of inhibition. […]

[7] = tested on: 2-5A-dependent endoribonuclease (RNase L); assay: 2-5A-enhanced degradation of [3H]-encephalomyocarditis virus RNA in cell extracts (activation of RNase L); format: biochemical, mouse
From the text: as §3
The enhanced activity of the 2'-terminally modified tetramer triphosphate 13 also was observed when the degradation of [^3 H]-encephalomycarditis virus RNA in cell extracts was examined. Modified tetramer triphosphate (13) enhanced degradation of labeled RNA with a concentration of 9×10^-11 M necessary to elicit a half-maximal response compared to ppp5'A2'p5'A2'p5'A which required a concentration of 9×10^-10 M to elicit a half-maximal response. In addition, there was good correlation between these values and the corresponding concentrations response for inhibition of protein synthesis.

reticulocyte lysate = details: compared to tetramer triphosphate; cited from earlier work

Molecule	IC50 [1] [nM]	effect on translation by itself [2]	prevention of protein synthesis inhibition caused by poly(I).poly(C) (in words) [3]	potency in preventing the inhibitory action of poly(I).poly(C) (in words) ([3]; 11 vs 12)	effect on the rate of synthesis of 2-5A (2-5A synthetase)	effect on the rate of synthesis of 2-5A (2-5A synthetase; listed as "tailed" (pA)4)	effectiveness as antagonist of 2-5A action (in words) [4]	increase in the concentration of 2-5A trimer triphosphate required for half-maximal inhibition of protein synthesis ([4]; 12 at 8×10^-5 M) [fold]	prevention of 2-5A-activated degradation of encephalomyocarditis virus RNA [5]	increase in the concentration of ppp5'A2'p5'A2'p5'A needed to effect 50% of the maximum inhibition ([5]; 8×10^-5 M 12) [fold]	stability in cell-free extracts relative to unmodified 2',5'-oligoadenylates [6]	antibody reactivity during incubation ([6]; 4×10^-7 M oligomer, 6 hours of incubation)	antibody inhibition by mononucleotides and adenosine [1]	activity as activator of RNase L (in words) [7]	biological activity in reticulocyte lysate (reticulocyte lysate)
5'-monophosphoryladenylyl-(2'→5')-adenylyl-(2'→5')adenylyl(2'→6')(3'-aza-4'-hexyl-1',2',3',4'-tetradeoxyhexopyranos-1'-yl)adenine [Compound 12]	1	no significant effect on translation	not complete	approximately equal potency	neither 11 nor 12 affected the rate of formation of 2-5A	neither "tailed" (pA)3 nor "tailed" (pA)4 had any significant effect on the rate of synthesis	somewhat more effective than the trimer 11 in preventing 2-5A action	≥ 1000	prevented	~1000	markedly more stable in cell-free extracts than the unmodified 2',5'-oligoadenylates	did not decrease even after 6 hours of incubation; also recorded: increased slightly with time	–	–	–
Nc1ncnc2c1ncn2[C@@H]1O[C@H](CO)[C@@H](O)[C@H]1O [adenosine]	–	–	–	–	–	–	–	–	–	–	–	–	inhibitory only at millimolar concentrations	–	–
ppp5'A2'p5'A2'p5'A	18	–	–	–	–	–	–	–	–	–	–	–	–	quite similar as activators of RNase L	anomalously low compared to tetramer triphosphate
